Earlier results, collected in patent US20160378912A1, “STRUCTURE-BASED MODELING AND TARGET-SELECTIVITY PREDICTION” (EPIGENETX, LLC, priority 2013, published 2016).
Where two headings read alike, the source gives them in different places.

Legend:
HDAC6 = biological target: T1, HDAC6 (Homo sapiens, UniProt Q9UBN7); conditions: cited from earlier work; for pIC50exp: HDAC6 experimental activity assigned; for pIC50: training set composition
T1 sequence (Q9UBN7 1-1215): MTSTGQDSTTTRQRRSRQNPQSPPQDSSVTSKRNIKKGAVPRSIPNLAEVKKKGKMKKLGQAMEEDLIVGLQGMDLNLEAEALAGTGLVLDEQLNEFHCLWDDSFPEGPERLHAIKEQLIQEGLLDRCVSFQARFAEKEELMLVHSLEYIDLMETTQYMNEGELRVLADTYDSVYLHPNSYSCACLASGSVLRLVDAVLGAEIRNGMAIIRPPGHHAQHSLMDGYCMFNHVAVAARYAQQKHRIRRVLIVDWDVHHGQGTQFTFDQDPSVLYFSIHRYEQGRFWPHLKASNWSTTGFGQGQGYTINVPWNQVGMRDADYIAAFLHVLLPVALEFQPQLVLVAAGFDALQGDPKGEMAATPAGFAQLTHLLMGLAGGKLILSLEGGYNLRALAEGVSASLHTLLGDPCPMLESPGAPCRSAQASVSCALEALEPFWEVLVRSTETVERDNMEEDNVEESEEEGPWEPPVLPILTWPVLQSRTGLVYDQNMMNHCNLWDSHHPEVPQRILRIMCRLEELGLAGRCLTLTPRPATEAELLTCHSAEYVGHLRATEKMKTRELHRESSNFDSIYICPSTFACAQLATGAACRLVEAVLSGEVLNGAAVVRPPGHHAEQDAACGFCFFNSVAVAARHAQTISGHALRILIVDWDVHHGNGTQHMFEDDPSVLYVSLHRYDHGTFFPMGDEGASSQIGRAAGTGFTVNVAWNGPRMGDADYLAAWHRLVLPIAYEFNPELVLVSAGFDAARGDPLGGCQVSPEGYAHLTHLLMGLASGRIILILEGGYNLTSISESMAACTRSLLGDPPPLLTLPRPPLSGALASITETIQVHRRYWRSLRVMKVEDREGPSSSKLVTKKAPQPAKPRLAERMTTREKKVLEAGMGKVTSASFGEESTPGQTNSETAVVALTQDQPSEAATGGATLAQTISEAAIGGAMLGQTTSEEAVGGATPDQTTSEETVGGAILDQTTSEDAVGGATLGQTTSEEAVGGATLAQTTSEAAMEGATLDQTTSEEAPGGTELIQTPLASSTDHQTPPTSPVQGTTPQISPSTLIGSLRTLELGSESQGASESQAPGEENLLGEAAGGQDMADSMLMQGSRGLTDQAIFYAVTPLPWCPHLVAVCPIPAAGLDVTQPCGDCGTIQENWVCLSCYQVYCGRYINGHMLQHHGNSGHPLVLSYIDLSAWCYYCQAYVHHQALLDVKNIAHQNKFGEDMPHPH

HDAC8 = biological target: T2, HDAC8 (Homo sapiens, UniProt Q9BY41); conditions: cited from earlier work
T2 sequence (Q9BY41 1-377): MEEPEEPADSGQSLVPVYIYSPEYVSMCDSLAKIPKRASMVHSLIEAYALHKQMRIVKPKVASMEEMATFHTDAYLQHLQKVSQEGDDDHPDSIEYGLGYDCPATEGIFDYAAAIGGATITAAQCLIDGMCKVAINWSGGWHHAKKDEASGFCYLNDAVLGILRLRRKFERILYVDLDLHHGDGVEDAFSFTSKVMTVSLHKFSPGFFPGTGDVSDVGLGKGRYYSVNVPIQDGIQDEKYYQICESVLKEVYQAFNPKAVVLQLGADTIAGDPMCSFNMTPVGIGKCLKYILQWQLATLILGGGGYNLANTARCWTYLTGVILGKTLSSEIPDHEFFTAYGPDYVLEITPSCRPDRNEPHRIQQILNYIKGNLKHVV

HDAC3 = HDAC3 (Homo sapiens, UniProt O15379); conditions: cited from earlier work
[1] = training set, read-out: HDACs inhibitory activities IC50

Sequence of HDAC3 (O15379 whole entry): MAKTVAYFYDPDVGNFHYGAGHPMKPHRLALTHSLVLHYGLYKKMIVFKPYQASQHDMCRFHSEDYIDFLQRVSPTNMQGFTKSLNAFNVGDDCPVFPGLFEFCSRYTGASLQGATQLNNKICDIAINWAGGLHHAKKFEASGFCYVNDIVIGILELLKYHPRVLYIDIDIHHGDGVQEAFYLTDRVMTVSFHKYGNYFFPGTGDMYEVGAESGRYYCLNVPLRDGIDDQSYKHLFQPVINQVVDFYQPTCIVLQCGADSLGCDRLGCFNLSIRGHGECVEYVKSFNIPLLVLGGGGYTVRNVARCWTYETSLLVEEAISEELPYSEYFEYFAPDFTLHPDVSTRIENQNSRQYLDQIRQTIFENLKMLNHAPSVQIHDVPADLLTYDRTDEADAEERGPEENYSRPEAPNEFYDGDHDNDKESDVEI
Sequence of HDAC3 (Q9Y618 395-489 partner limits assumed): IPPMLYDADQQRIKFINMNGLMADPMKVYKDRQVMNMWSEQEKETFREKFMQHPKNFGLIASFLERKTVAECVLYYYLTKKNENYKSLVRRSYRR

In the case of `CCCC(=O)O` [NABUT, Butyrate], the pIC50exp (HDAC6; HDAC6-1 (histone catalytic domain)) is listed as 3, the pIC50 (HDAC6; HDAC6-1) is listed as 3.00 and the pIC50exp (HDAC6; HDAC6-2 (tubulin catalytic domain)) is listed as 3. The pIC50 (HDAC6; HDAC6-2) was 3.00, the IC50 (HDAC6; HDAC6, training set, read-out: HDACs inhibitory activities IC50) was 1000 µM and the pIC50 (HDAC8; training set composition) was 4.07. For the same compound, the IC50 (HDAC8; [1]) was 85.6 µM, the pIC50exp (HDAC3; experimental value of modeled complex) was 4.648 and the pIC50 (HDAC3; training set composition) was 4.65. The IC50 (HDAC3; [1]) was 22.5 µM.
